Experiments:
Format in all cases: in vivo
Drebrin = assay: Western blot of hippocampus, human tau mice: Drebrin; conditions: 12 weeks of treatment in drinking water
Description: (§1) Mouse Hippocampus were processed for Western blotting analysis of (A) Drebrin (actin binding protein in dendritic spines, role in neuronal growth, a decrease=contributing factor in the pathogenesis of memory disturbance), (B) PSD95 (a post-synaptic protein, role in the regulation of excitatory synapse maturity), and (C) NeuN (neuronal nuclear antigen, biomarker for neurons, decrease=neuronal loss) (FIG. 3).

human tau mice [1] = assay: Barnes maze long-term memory, human tau mice; conditions: by week 23 of treatment (between week 19 and 23), male and female combined
Description: (§2) The human tau mouse is a model of sporadic dementia that expresses human non-mutant tau (6 isoforms) in the absence of endogenous mouse tau. The model develops age-associated pathology, with hyperphosphorylated tau detected in cell bodies and dendrites by 3 months of age (Andorfer et al., 2003; J Neurochem 86, 582-590, doi:10.1046/j.1471-4159.2003.01879.x). These mice display abnormal spatial learning by 6 months of age and impaired learning in the Morris water maze with memory loss by 12 months of age, as well as memory deficits in the Barnes maze by 6 months of age (Marquez et al, 2021).
(§3) Female and male human tau mice (Jax #005491) were treated daily for 25 weeks with PTG-630 trihydrochloride at 1 and 5 mg/kg in drinking water starting at 10 weeks of age (before cognitive deficits appear).
(§4) Learning and memory were assessed using the Barnes maze test and the object recognition test at 6-8, 12-13, 18-19 and 24-25 weeks. Corneal nerves were imaged by corneal confocal microscopy (CCM) at week 6, 9, 12, 18 and 25. Data represent male and female results combined, mean±sem.
Using the Barnes maze test, long-term memory was assessed between week 13 and 19 and between week 19 and 23 of treatment (FIG. 1A, B).

PSD95 = assay: Western blot of hippocampus, human tau mice: PSD95; conditions: 1 and 5 mg/kg, tendency
Experimental: as §3, §1

human tau mice [2] = assay: Object recognition test, human tau mice
Description: as §2, §3, §4

[3] = tested on: carboxymethyl Lysine (CML); assay: Carboxymethyl lysine (CML) by LC-MS/MS in terminal plasma and brain cortex, htau mice
Experimental: as §3
Terminal plasma and brain cortex were also analyzed for carboxymethyl Lysine (CML), a prominent advanced glycation end-product (AGE), by an LC-MS/MS quantitative chemical analysis method. PTG-630 and PTG-670 were developed as potent AGE inhibitors and tested for amelioration of PNS and CNS damage due to the extensive work that implicated AGE formation as a causative factor in the development of neurodegenerative pathologies.

NeuN = assay: Western blot of hippocampus, human tau mice: NeuN; conditions: 5 mg/kg
Experimental: as §3, §1

4-hydroxynonal (4-HNE) = assay: Lipid peroxidation, 4-HNE Oxiselect ELISA in hippocampus homogenates, htau mice
Experimental: as §3
Lipid peroxidation was assessed using the 4-hydroxynonal (4-HNE) Oxiselect ELISA in hippocampus homogenates. […] It is believed that damage to neuronal tissue occurs to a significant extent via induction of oxidative stress that leads to lipoxidation, so that amelioration by PTG-630 reflects their efficacy via anti-oxidant mechanisms.

htau mice = assay: Intraepidermal nerve fiber (IENF) quantification in footskin, htau mice
Description: A standard measure of associated PNS damage to neuronal tissue and its amelioration is IENF, seen alongside changes in the CNS. […] The amelioration of these PNS effects confirms that PTG-630 readily enters and targets neuronal tissue, whether in the brain or elsewhere in the body.

human tau mice [4] = assay: Tactile allodynia (manual von Frey filaments), human tau mice; conditions: 5 mg/kg, after 14 weeks of treatment
Experimental: as §3
Tactile and thermal responses, measures of associated damage to the peripheral nervous system (PNS), were assessed at 8, 14, 18 and 24 weeks. hTau mice developed significant tactile allodynia measured with manual von Frey filaments at the 14 weeks time point (FIG. 4).

[5] = Mortality and apparent toxicity, 25 weeks in human tau mice; conditions: 1 and 5 mg/kg in drinking water
Experimental: as §3
• 1—Control (C57B16), N=7 male, N=7 female, Final N=6 male, N=6 female • 2—htau, N=7 male, N=7 female, Final N=7 male, N=6 female • 3—htau+PTG-630 1 mg/kg drinking water, N=7 male, N=7 female, Final N=7 male, N=7 female • 4—htau+PTG-630 5 mg/kg drinking water, N=7 male, N=7 female, Final N=6 male, N=7 female
One mouse in group 4 died at week 8 from tooth occlusion.

With `Cc1ncc(CN2CCOCC2)c(-c2ncc[nH]2)c1O` [PTG-630, 4-(1H-imidazol-2-yl)-2-methyl-5-(morpholinomethyl)pyridin-3-ol] the “reduced drebrin levels in hippocampus” value (Drebrin) was “significantly (p<0.05) ameliorated”, the “long-term memory impairment in Barnes maze” value (human tau mice [1]) was “significantly prevented” and the “levels of PSD95 protein in hippocampus” value (PSD95) was “dose-dependly ameliorate”. The “short term episodic memory deficits in Object recognition test” value (human tau mice [2]; 1 mg/kg in drinking water) was “partially ameliorated”, the “short term episodic memory deficits in Object recognition test” value (human tau mice [2]; 5 mg/kg in drinking water for 17 weeks) was “significantly alleviated” and the “short-term episodic memory (recognition index)” value (human tau mice [2]; FIG. 2 legend, dose not stated) was “partially prevented”. The “CML levels in cortex” value ([3]; female htau mice, 5 mg/kg) was “significantly (p<0.05) reduced”, the “CML levels in cortex” value ([3]; male) was “No significant difference” and the “CML levels in plasma” value ([3]; male and female) was “No significant difference”. The “neuronal loss (NeuN) in hippocampus” value (NeuN) was “partially alleviated”, the “4-HNE levels in hippocampus” value (4-hydroxynonal (4-HNE); 1 mg/kg) was “significantly (p<0.01) reduced HINE levels to control levels” and the “4-HNE levels in hippocampus” value (4-hydroxynonal (4-HNE); 5 mg/kg) was “significantly (p<0.01) reduced HINE levels to control levels”. For the same compound, the IENF in footskin (htau mice; female mice) was “No difference was noted”, the “decreased IENF in footskin” value (htau mice; male mice, 1 mg/kg) was “significantly (p<0.05) ameliorated” and the tactile allodynia (human tau mice [4]) was “significantly ameliorated”. The apparent toxicity [5] was “No toxicity was apparent”.

— patent US20250090541A1, “Methods for Treating Neurodegenerative Disorders” (Praetego Inc, priority 2022, published 2025)
